From US20090012119A1, “FLUOROALKYLPYRROLIDINE DERIVATIVE” (DAIICHI SANKYO COMPANY LIMITED, priority 2005, published 2009)
In brackets after ≈: the same amount, converted by molar mass.

Legend:
E. coli, NIHJ = test: Antibacterial activity (MIC), standard method of Japanese Society of Chemotherapy; assay type: cell-based; settings: Escherichia coli
Description: (§1) MIC value is also shown for levofloxacin (LVFX), ciprofloxacin (CPFX), and Comparative Compound (compound of Example 1 in the Patent Document 1) for comparison with the MIC value of the compound of the present invention.

Pr. mirabilis, IFO-3849 = test: as above; assay type: cell-based; settings: Proteus mirabilis, IFO3849
Description: as §1

Pr. vulgaris, 08601 = test: as above; assay type: cell-based; settings: Proteus vulgaris
Description: as §1

Ps. aeruginosa, 32104 = test: as above; assay type: cell-based; settings: Pseudomonas aeruginosa
Description: as §1

Ps. aeruginosa, 32121 = test: as above; assay type: cell-based; settings: Pseudomonas aeruginosa
Description: as §1

S. aureus, 209P = test: as above; assay type: cell-based; settings: Staphylococcus aureus
Description: as §1

S. aureus, 870307 = test: as above; assay type: cell-based; settings: 870307: levofloxacin-resistant methicillin-resistant Staphylococcus aureus
Description: as §1

S. epidermidis, 56500 = test: as above; assay type: cell-based; settings: Staphylococcus epidermidis
Description: as §1

S. flexneri, 2A 5503 = test: as above; assay type: cell-based; settings: Shigella flexneri, 2A5503
Description: as §1

S. maltophilia, IID-1275 = test: as above; assay type: cell-based; settings: Stenotrophomonas maltophilia, IID1275
Description: as §1

S. pneumoniae, J24 = test: as above; assay type: cell-based; settings: Streptococcus pneumoniae, J24: penicillin resistant pneumococcus (moderate resistance)
Description: as §1

Ser. marcescens, 10100 = test: as above; assay type: cell-based; settings: Serratia marcescens
Description: as §1

[1] = tested on: Str. faecalis, ATCC-19433; test: as above; assay type: cell-based; settings: Enterococcus faecalis, ATCC19433
Description: as §1

Str. pyogenes, G-36 = test: as above; assay type: cell-based; settings: Streptococcus pyogenes, G36
Description: as §1

[2] = tested on: 6 week old male Slc:ddY mice; test: Single dose toxicity test, intravenous injection; assay type: in vivo
Description: The compounds of the present invention were evaluated for their toxicity in a single dose toxicity test by administering the compounds to 6 week old male Slc:ddY mice. The compound was diluted with 0.1 mol/l NaOH/physiological saline, and filtered through Millex GS filter (0.22 μm) for sterilization. The compound was administered at a rate of 10 ml/kg and 0.2 ml/min in a single dose by intravenous injection. The compound of Example 1 in the Patent Document 1 was used for the Comparative Compound as in the case of Test Example 1.

SMILES | MIC (E. coli, NIHJ) [µg/mL] | MIC (Pr. mirabilis, IFO-3849) [µg/mL] | MIC (Pr. vulgaris, 08601) [µg/mL] | MIC (Ps. aeruginosa, 32104) [µg/mL] | MIC (Ps. aeruginosa, 32121) [µg/mL] | MIC (S. aureus, 209P) [µg/mL] | MIC (S. aureus, 870307) [µg/mL] | MIC (S. epidermidis, 56500) [µg/mL] | MIC (S. flexneri, 2A 5503) [µg/mL] | MIC (S. maltophilia, IID-1275) [µg/mL] | MIC (S. pneumoniae, J24) [µg/mL] | MIC (Ser. marcescens, 10100) [µg/mL] | MIC [1] [µg/mL] | MIC (Str. pyogenes, G-36) [µg/mL] | Number of dead mice/Total ([2]; Dose 100 mg/kg) | Number of dead mice/Total ([2]; Dose 150 mg/kg) | melting point [°C]
Cc1c(N2C[C@H](CF)[C@H](N)C2)c(F)cc2c(=O)c(C(=O)O)cn([C@@H]3C[C@@H]3F)c12 [Compound No. 3, 7-[(3S,4S)-3-amino-4-fluoromethyl-1-pyrrolidinyl]-6-fluoro-1-[(2S,1R)-2-fluorocyclopropyl]-1,4-dihydro-8-methyl-4-oxoquinoline-3-carboxylic acid] | 0.006 (≈ 0.0152 µM) | 0.006 (≈ 0.0152 µM) | ≤ 0.003 | 0.05 (≈ 0.126 µM) | 0.025 (≈ 0.0632 µM) | 0.006 (≈ 0.0152 µM) | 0.39 (≈ 0.986 µM) | 0.025 (≈ 0.0632 µM) | ≤ 0.003 | 0.1 (≈ 0.253 µM) | 0.025 (≈ 0.0632 µM) | 0.025 (≈ 0.0632 µM) | 0.1 (≈ 0.253 µM) | 0.05 (≈ 0.126 µM) | 0/5 | 0/3♭ | –
O=C(O)c1cn(C2CC2)c2cc(N3CCNCC3)c(F)cc2c1=O [CPFX, ciprofloxacin, reference compound] | ≤ 0.003 | 0.012 (≈ 0.0362 µM) | ≤ 0.003 | 0.05 (≈ 0.151 µM) | 0.025 (≈ 0.0754 µM) | 0.1 (≈ 0.302 µM) | > 6.25 | 0.2 (≈ 0.604 µM) | 0.006 (≈ 0.0181 µM) | 0.78 (≈ 2.35 µM) | 0.1 (≈ 0.302 µM) | 0.025 (≈ 0.0754 µM) | 0.78 (≈ 2.35 µM) | 1.56 (≈ 4.71 µM) | – | – | –
Cc1c(N2C[C@H](CF)[C@H](N)C2)ccc2c(=O)c(C(=O)O)cn(C3CC3)c12 [Compound No. 2, 7-[(3S,4S)-3-amino-4-fluoromethyl-1-pyrrolidinyl]-1-cyclopropyl-1,4-dihydro-8-methyl-4-oxoquinoline-3-carboxylic acid] | ≤ 0.003 | 0.05 (≈ 0.139 µM) | 0.006 (≈ 0.0167 µM) | 0.1 (≈ 0.278 µM) | 0.025 (≈ 0.0696 µM) | 0.025 (≈ 0.0696 µM) | 0.78 (≈ 2.17 µM) | 0.1 (≈ 0.278 µM) | 0.006 (≈ 0.0167 µM) | 0.2 (≈ 0.556 µM) | 0.1 (≈ 0.278 µM) | 0.05 (≈ 0.139 µM) | 0.2 (≈ 0.556 µM) | 0.2 (≈ 0.556 µM) | – | – | 203 to 205
COc1c(N2C[C@H](CF)[C@H](N)C2)c(F)cc2c(=O)c(C(=O)O)cn(C3C[C@@H]3F)c12 (stereo partly shown) [Comparative Compound, reference compound] | ≤ 0.003 | 0.025 (≈ 0.0608 µM) | 0.012 (≈ 0.0292 µM) | 0.2 (≈ 0.486 µM) | 0.05 (≈ 0.122 µM) | 0.012 (≈ 0.0292 µM) | 0.2 (≈ 0.486 µM) | 0.05 (≈ 0.122 µM) | 0.006 (≈ 0.0146 µM) | 0.2 (≈ 0.486 µM) | 0.025 (≈ 0.0608 µM) | 0.05 (≈ 0.122 µM) | 0.1 (≈ 0.243 µM) | 0.1 (≈ 0.243 µM) | 1/5 | 2/3 | –
CN[C@@H]1CN(c2c(F)cc3c(=O)c(C(=O)O)cn([C@@H]4C[C@@H]4F)c3c2C)C[C@@H]1CF [Compound No. 4, 7-[(3S,4S)-3-fluoromethyl-4-methylaminopyrrolidine-1-yl]-6-fluoro-1-[(2S,1R)-2-fluorocyclopropyl]-1,4-dihydro-8-methyl-4-oxoquinoline-3-carboxylic acid] | ≤ 0.003 | 0.025 (≈ 0.0611 µM) | 0.006 (≈ 0.0147 µM) | 0.1 (≈ 0.244 µM) | 0.05 (≈ 0.122 µM) | 0.012 (≈ 0.0293 µM) | 0.39 (≈ 0.953 µM) | 0.05 (≈ 0.122 µM) | 0.006 (≈ 0.0147 µM) | 0.1 (≈ 0.244 µM) | 0.05 (≈ 0.122 µM) | 0.05 (≈ 0.122 µM) | 0.1 (≈ 0.244 µM) | 0.1 (≈ 0.244 µM) | 0/5 | 1/2 | –
Cc1c(N2C[C@@H](N)[C@@H](C(F)F)C2)c(F)cc2c(=O)c(C(=O)O)cn([C@@H]3C[C@@H]3F)c12 [Compound No. 6, 7-[(3S,4S)-3-amino-4-difluoromethylpyrrolidine-1-yl]-6-fluoro-1-[(1R,2S)-2-fluorocyclopropyl]-8-methyl-1,4-dihydro-4-oxoquinoline-3-carboxylic acid] | ≤ 0.003 | 0.012 (≈ 0.029 µM) | 0.006 (≈ 0.0145 µM) | 0.2 (≈ 0.484 µM) | 0.05 (≈ 0.121 µM) | 0.012 (≈ 0.029 µM) | 0.2 (≈ 0.484 µM) | 0.025 (≈ 0.0605 µM) | ≤ 0.003 | 0.05 (≈ 0.121 µM) | 0.05 (≈ 0.121 µM) | 0.05 (≈ 0.121 µM) | 0.1 (≈ 0.242 µM) | 0.05 (≈ 0.121 µM) | – | – | 214 to 216
Cc1c(N2C[C@H](CF)[C@H](N)C2)c(F)cc2c(=O)c(C(=O)O)cn(C3CC3)c12 [Compound No. 1, 7-[(3S,4S)-3-amino-4-fluoromethyl-1-pyrrolidinyl]-1-cyclopropyl-6-fluoro-1,4-dihydro-8-methyl-4-oxoquinoline-3-carboxylic acid] | ≤ 0.003 | 0.012 (≈ 0.0318 µM) | ≤ 0.003 | 0.05 (≈ 0.132 µM) | 0.025 (≈ 0.0662 µM) | 0.012 (≈ 0.0318 µM) | 0.2 (≈ 0.53 µM) | 0.025 (≈ 0.0662 µM) | ≤ 0.003 | 0.1 (≈ 0.265 µM) | 0.025 (≈ 0.0662 µM) | 0.025 (≈ 0.0662 µM) | 0.05 (≈ 0.132 µM) | 0.1 (≈ 0.265 µM) | – | – | 160 to 165
C[C@H]1COc2c(N3CCN(C)CC3)c(F)cc3c(=O)c(C(=O)O)cn1c23 [LVFX, levofloxacin, reference compound] | 0.012 (≈ 0.0332 µM) | 0.05 (≈ 0.138 µM) | 0.012 (≈ 0.0332 µM) | 0.2 (≈ 0.553 µM) | 0.1 (≈ 0.277 µM) | 0.2 (≈ 0.553 µM) | > 6.25 | 0.39 (≈ 1.08 µM) | 0.025 (≈ 0.0692 µM) | 0.39 (≈ 1.08 µM) | 0.78 (≈ 2.16 µM) | 0.1 (≈ 0.277 µM) | 0.78 (≈ 2.16 µM) | 0.78 (≈ 2.16 µM) | – | – | –
CN[C@@H]1CN(c2c(F)cc3c(=O)c(C(=O)O)cn(C4CC4)c3c2C)C[C@@H]1CF [Compound No. 5, 1-cyclopropyl-6-fluoro-7-[(3S,4S)-3-fluoromethyl-4-methylaminopyrrolidine-1-yl]-8-methyl-1,4-dihydro-4-oxoquinoline-3-carboxylic acid] | ≤ 0.003 | 0.025 (≈ 0.0639 µM) | 0.006 (≈ 0.0153 µM) | 0.2 (≈ 0.511 µM) | 0.05 (≈ 0.128 µM) | 0.012 (≈ 0.0307 µM) | 0.39 (≈ 0.996 µM) | 0.05 (≈ 0.128 µM) | ≤ 0.003 | 0.05 (≈ 0.128 µM) | 0.05 (≈ 0.128 µM) | 0.05 (≈ 0.128 µM) | 0.1 (≈ 0.255 µM) | 0.1 (≈ 0.255 µM) | – | – | 156 to 158
